From ChEMBL document CHEMBL1150746, “Native American food and medicinal plants, 8. Water-soluble constituents of Lomatium dissectum” (1988)

Test system: Xanthomonas campestris
Experiment: Antimicrobial activity against Xanthomonas campestris at 0.5 mg/disk
Assay type: functional

O=c1cc(-c2ccc(O)c(O)c2)oc2cc(O[C@@H]3O[C@H](CO)[C@@H](O)[C@H](O)[C@H]3O)cc(O)c12 [GALUTEOLIN]
inhibition zone (IZ): 3 mm
